Laboratory results: ChEMBL document CHEMBL1153700, “Synthesis and SAR of novel, non-MPEP chemotype mGluR5 NAMs identified by functional HTS” (Bioorg Med Chem Lett, 2009)
pIC50: −log10 of the molar value.

Experiments:
[1] = target: Metabotropic glutamate receptor 5 (Rattus norvegicus, UniProt P31424); assay: Antagonist activity at rat mGluR5 expressed in human HEK293A cells assessed as inhibition of glutamate-induced calcium flux; format: functional, cell-based, HEK293-A
[2] = target: Metabotropic glutamate receptor 5 (Rattus norvegicus) (UniProt P31424); assay: Antagonist activity at rat mGluR5 expressed in human HEK293A cells assessed as inhibition of glutamate-induced calcium flux relative to glutamate; format: functional, cell-based; conditions: HEK293-A
[3] = target: Metabotropic glutamate receptor 5 (Homo sapiens, UniProt P41594); assay: Antagonist activity at mGluR5; format: functional
Metabotropic glutamate receptor 5 (Homo sapiens, UniProt P41594), sequence (P41594 whole entry): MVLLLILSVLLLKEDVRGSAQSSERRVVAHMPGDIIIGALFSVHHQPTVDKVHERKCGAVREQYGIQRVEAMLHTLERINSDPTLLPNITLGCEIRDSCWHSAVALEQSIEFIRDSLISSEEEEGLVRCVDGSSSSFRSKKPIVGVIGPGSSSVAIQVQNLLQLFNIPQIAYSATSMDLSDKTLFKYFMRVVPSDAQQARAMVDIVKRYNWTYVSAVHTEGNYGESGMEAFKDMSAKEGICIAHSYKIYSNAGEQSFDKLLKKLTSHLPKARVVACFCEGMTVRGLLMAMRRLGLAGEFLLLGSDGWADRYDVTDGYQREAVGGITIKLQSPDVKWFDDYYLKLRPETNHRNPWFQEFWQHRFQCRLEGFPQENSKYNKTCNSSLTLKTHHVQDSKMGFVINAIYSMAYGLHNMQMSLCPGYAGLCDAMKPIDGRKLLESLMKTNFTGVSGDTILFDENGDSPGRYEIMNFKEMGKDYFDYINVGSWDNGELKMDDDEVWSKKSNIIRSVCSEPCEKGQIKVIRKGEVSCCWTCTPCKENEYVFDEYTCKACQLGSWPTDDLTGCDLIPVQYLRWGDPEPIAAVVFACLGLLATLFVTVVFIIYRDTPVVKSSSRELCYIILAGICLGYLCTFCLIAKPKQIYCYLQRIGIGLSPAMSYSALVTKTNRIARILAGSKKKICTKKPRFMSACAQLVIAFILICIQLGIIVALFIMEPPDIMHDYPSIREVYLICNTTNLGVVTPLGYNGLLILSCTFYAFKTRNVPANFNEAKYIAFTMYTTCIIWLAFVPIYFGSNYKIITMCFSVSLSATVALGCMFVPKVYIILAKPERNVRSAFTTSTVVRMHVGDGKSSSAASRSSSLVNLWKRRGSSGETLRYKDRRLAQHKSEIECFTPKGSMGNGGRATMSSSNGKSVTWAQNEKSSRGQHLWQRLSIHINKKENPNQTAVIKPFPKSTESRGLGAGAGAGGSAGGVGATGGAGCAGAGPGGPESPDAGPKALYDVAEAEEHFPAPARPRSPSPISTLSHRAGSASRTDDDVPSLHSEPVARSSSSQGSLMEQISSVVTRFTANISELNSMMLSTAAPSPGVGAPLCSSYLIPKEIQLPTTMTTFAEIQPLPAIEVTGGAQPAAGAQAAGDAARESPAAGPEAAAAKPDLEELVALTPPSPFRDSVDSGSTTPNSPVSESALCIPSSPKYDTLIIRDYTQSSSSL

Metabotropic glutamate receptor 5 (Rattus norvegicus), sequence (P31424 21-1203 limits assumed): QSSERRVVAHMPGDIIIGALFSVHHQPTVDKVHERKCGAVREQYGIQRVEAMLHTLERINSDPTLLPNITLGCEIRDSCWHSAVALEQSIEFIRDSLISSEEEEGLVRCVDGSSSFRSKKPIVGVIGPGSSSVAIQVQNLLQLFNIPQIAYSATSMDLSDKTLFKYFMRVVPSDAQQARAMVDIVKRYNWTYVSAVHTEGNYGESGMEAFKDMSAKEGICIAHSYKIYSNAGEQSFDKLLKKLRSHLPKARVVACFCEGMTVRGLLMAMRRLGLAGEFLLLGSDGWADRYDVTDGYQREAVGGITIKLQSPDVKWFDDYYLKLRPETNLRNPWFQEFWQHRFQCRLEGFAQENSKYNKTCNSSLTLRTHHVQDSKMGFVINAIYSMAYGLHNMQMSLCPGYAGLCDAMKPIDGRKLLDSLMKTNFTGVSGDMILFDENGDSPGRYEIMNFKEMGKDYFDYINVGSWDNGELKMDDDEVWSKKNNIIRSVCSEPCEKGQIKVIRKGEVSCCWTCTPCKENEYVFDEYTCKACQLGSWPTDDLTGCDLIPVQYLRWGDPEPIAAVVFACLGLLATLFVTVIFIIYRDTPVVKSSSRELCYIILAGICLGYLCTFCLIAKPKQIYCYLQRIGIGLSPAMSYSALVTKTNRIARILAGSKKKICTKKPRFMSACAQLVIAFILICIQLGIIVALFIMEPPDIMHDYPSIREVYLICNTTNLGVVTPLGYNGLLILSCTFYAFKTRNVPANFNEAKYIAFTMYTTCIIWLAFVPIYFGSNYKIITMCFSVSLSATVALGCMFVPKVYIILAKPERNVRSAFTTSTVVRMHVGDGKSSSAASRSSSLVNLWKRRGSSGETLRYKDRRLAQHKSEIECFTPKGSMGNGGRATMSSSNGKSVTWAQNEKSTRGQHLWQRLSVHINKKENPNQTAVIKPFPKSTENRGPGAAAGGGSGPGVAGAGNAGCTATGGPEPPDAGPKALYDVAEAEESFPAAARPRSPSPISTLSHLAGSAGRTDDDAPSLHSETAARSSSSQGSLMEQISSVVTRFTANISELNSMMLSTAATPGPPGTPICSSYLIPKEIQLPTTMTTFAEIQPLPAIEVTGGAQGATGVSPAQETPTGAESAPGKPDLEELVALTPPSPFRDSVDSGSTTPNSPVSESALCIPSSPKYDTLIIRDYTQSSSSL
Metabotropic glutamate receptor 5 (Rattus norvegicus, UniProt P31424), sequence (P31424 whole entry): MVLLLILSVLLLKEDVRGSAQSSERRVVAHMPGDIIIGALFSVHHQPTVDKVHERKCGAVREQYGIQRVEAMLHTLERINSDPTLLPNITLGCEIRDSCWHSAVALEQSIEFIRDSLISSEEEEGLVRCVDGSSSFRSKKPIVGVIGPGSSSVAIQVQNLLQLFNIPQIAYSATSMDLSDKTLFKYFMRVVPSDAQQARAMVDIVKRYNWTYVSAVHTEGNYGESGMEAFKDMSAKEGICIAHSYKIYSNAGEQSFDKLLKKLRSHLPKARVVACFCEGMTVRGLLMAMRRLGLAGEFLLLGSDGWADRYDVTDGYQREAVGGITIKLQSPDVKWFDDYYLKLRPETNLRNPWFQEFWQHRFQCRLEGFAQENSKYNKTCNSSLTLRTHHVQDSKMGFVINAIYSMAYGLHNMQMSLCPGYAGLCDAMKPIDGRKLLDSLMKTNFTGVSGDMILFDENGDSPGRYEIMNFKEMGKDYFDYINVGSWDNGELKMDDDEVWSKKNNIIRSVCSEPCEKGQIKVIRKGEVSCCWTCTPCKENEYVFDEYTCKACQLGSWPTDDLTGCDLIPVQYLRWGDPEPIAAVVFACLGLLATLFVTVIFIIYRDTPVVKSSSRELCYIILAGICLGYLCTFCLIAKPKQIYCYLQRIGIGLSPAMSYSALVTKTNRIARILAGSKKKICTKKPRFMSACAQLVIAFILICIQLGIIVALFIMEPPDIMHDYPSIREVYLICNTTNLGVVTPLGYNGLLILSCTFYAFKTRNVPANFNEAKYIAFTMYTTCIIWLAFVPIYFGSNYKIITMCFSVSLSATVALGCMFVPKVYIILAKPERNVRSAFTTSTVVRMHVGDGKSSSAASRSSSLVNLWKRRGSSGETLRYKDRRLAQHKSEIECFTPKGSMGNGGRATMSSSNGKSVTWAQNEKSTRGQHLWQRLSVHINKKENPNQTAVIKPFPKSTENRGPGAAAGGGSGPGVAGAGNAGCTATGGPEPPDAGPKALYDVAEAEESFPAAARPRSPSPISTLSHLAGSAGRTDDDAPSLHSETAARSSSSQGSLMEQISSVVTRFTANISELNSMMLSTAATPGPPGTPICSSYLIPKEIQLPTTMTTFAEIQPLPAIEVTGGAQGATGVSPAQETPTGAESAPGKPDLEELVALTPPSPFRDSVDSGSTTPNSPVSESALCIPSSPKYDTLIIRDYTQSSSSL

Compound | pIC50 [1] | % Glu Max [2] [%] | pIC50 [3]
O=C(NC1CC2CCC1C2)c1cccc(N2C(=O)c3ccccc3C2=O)c1 (stereo not drawn) | < 4.52 | 71 | –
CC(C)C(=O)Nc1cccc(NC(=O)c2cccc(Cl)c2)c1 | 5.24 | 26.9 | –
COCC(=O)Nc1cccc(NC(=O)c2cccc(Cl)c2)c1 | < 4.52 | – | –
COc1ccccc1C(=O)Nc1cccc(NC(=O)c2ccc(Cl)c(Cl)c2)c1 | < 4.52 | – | –
O=C(Nc1cccc(NC(=O)c2ccco2)c1)c1cccc(Cl)c1 | 5.35 | 49.3 | –
O=C(Nc1cccc(NC(=O)c2cccc(Cl)c2)c1)c1ccc(Cl)cc1 | < 4.52 | – | –
O=C(NC1CC1)c1cccc(N2C(=O)c3ccccc3C2=O)c1 | < 4.52 | 68 | –
CC(=O)Nc1cccc(NC(=O)c2cccc(Cl)c2)c1 | 5.10 | 39.6 | –
COc1cc(NC(=O)c2cccc(N3C(=O)c4ccccc4C3=O)c2)cc(OC)c1 | 5.45 | 76.2 | –
COc1ccccc1C(=O)Nc1cccc(NC(=O)C2CC2)c1 | < 4.52 | – | –
COc1ccccc1C(=O)Nc1cccc(NC(=O)c2cccc(C#N)c2)c1 | 5.74 | 3.22 | –
Cc1cccc(C(=O)Nc2cccc(NC(=O)c3cccc(Cl)c3)c2)c1 | < 4.52 | – | –
O=C(Nc1cccc(NC(=O)c2cccc(Cl)c2)c1)c1ccc(F)cc1 | < 4.52 | – | –
O=C(Nc1cccc(NC(=O)c2cccc(Cl)c2)c1)c1cccc(Cl)c1 | < 4.52 | – | –
O=C(Cc1ccccc1)Nc1cccc(NC(=O)c2cccc(Cl)c2)c1 | < 4.52 | – | –
COc1ccccc1C(=O)Nc1cccc(NC(=O)c2cccc(C(F)(F)F)c2)c1 | 4.97 | 26.1 | –
O=C(Nc1cccc(NC(=O)C2CC2)c1)c1cccc(Cl)c1 | 5.65 | 32.3 | –
O=C(Nc1cccc(NC(=O)C2CCC2)c1)c1cccc(Cl)c1 | 5.28 | 44 | –
COc1ccccc1C(=O)Nc1cccc(NC(=O)C2CCCCC2)c1 | < 4.52 | – | –
COc1ccccc1NC(=O)c1cccc(N2C(=O)c3ccccc3C2=O)c1 | < 4.52 | 86 | –
O=C(Nc1cccc(NC(=O)C23CC4CC(CC(C4)C2)C3)c1)c1cccc(Cl)c1 | < 4.52 | – | –
COc1ccccc1C(=O)Nc1cccc(NC(=O)C2CC2c2ccccc2)c1 (stereo not drawn) | < 4.52 | – | –
O=C(Nc1ccccn1)c1cccc(N2C(=O)c3ccccc3C2=O)c1 | 5.90 | 59.5 | –
COc1ccccc1C(=O)Nc1cccc(NC(=O)C23CC4CC(CC(C4)C2)C3)c1 | < 4.52 | – | –
COc1ccccc1C(=O)Nc1cccc(NC(C)=O)c1 | < 4.52 | – | –
COc1ccccc1C(=O)Nc1cccc(NC(=O)c2ccc(F)cc2)c1 | < 4.52 | – | –

Compound | pIC50 [1] | % Glu Max [2] [%] | pIC50 [3]
O=C(Nc1ccc(F)cc1)c1cccc(N2C(=O)c3ccccc3C2=O)c1 | < 4.52 | 73 | –
COc1ccccc1C(=O)Nc1cccc(NC(=O)C2CCCC2)c1 | < 4.52 | – | –
COc1ccccc1C(=O)Nc1cccc(NC(=O)c2ccccc2Cl)c1 | < 4.52 | – | –
O=C(Nc1ccccc1F)c1cccc(N2C(=O)c3ccccc3C2=O)c1 | 5.98 | 49.9 | –
COc1ccccc1C(=O)Nc1cccc(NC(=O)c2ccco2)c1 | < 4.52 | – | –
COc1ccccc1C(=O)Nc1cccc(NC(=O)c2cccc(Cl)c2)c1 | 6.06 | 2.6 | 5.96
O=C(Nc1cccc(NC(=O)C2CCCC2)c1)c1cccc(Cl)c1 | < 4.52 | – | –
COc1ccccc1C(=O)Nc1cccc(NC(=O)c2cc(Cl)cc(Cl)c2)c1 | < 4.52 | – | –
COc1ccccc1C(=O)Nc1cccc(NC(=O)C2CCC2)c1 | < 4.52 | – | –
O=C(Nc1cccnc1)c1cccc(N2C(=O)c3ccccc3C2=O)c1 | < 4.52 | 86 | –
COc1ccccc1C(=O)Nc1cccc(NC(=O)c2ccc3c(c2)OCO3)c1 | < 4.52 | – | –
O=C(Nc1cccc(O)c1)c1cccc(N2C(=O)c3ccccc3C2=O)c1 | 5.11 | 48.1 | –
COc1ccccc1C(=O)Nc1cccc(NC(=O)c2ccc(Cl)cc2)c1 | < 4.52 | – | –
O=C(Nc1cccc(NC(=O)c2ccc(Cl)c(Cl)c2)c1)c1cccc(Cl)c1 | < 4.52 | – | –
O=C(Nc1cccc(NC(=O)c2ccc3c(c2)OCO3)c1)c1cccc(Cl)c1 | < 4.52 | – | –
O=C(Nc1cccc(Cl)c1)c1cccc(N2C(=O)c3ccccc3C2=O)c1 | 5.75 | 26.4 | –
COc1ccccc1C(=O)Nc1cccc(NC(=O)C(C)C)c1 | < 4.52 | – | –
O=C(Nc1cccc(NC(=O)c2cccc(Cl)c2)c1)c1cccc(F)c1 | < 4.52 | – | –
O=C(Nc1cccc(NC(=O)c2ccccc2Cl)c1)c1cccc(Cl)c1 | 5.58 | 8.78 | –
COc1ccccc1C(=O)Nc1cccc(NC(=O)c2cccc(C)c2)c1 | 5.87 | 3.82 | –
COc1ccccc1C(=O)Nc1cccc(NC(=O)Cc2ccccc2)c1 | < 4.52 | – | –
O=C(Nc1cccc(NC(=O)C2CC2c2ccccc2)c1)c1cccc(Cl)c1 (stereo not drawn) | < 4.52 | – | –
COCC(=O)Nc1cccc(NC(=O)c2ccccc2OC)c1 | < 4.52 | – | –
O=C(Nc1cccc(NC(=O)c2cccc(C(F)(F)F)c2)c1)c1cccc(Cl)c1 | < 4.52 | – | –
COc1ccccc1C(=O)Nc1cccc(NC(=O)c2cccc(F)c2)c1 | 5.19 | 25.8 | –
